# Reference: publication PMC9021288 (Nature Communications, 2022)
# “And” between values parts separate entries of the source, which are not always exact repeats. Identical values can stand only once.
# What was measured:
# [1] = Human hepatocyte clearance (relay assay); settings: human, hepatocytes
# Excerpt: Briefly, cryopreserved human primary hepatocytes were thawed and cultured as described above.
# [2] = Pharmacokinetics in mice; format: in vivo, male CD1 mice
# Method: Subsequently, samples were spun down at 1640 g for 5-10 min at 4 °C within 30 min after collection and plasma was collected. […] Urine was collected following an intravenous dose in both rat and dog, allowing renal clearance to be estimated. Human renal clearance was estimated from dog renal clearance as previously described[40] and other human PK parameters were predicted using allometric scaling and/or in vitro clearance data. PK parameters were calculated by naïve pooled approach using WinNonLin software (Phoenix, version 6.3).
# [3] = 8-day Dose Range Finding (DRF) rat study; format: in vivo, Wistar Han rats
# Excerpt: See the summary of the study design in Supplementary Table 31. Nine-week-old Wistar (Crl:WI (Han)) rats were obtained from Charles River Laboratories (Domaine des Oncins, Saint-Germain-Nuelles, France). […] Animals were examined daily for any altered clinical signs, body weights, and food consumption. Blood samples were taken at different timepoints after the test item administration, and toxicokinetic exposure assessed under the defined experimental conditions and analyzed using Phoenix (version 6.4 and 1.4) (Supplementary Table 32). Measurements included hematology and clinical chemistry measurements. Animals were euthanized and necropsied at the end of the dosing period. At necropsy, major organ systems and tissues were collected and weighed and then examined for gross lesions as well as for microscopic changes.
# [4] = biological target: T1, panel of human receptors and channels (Homo sapiens, UniProt P07550); format: binding; settings: β2 (h) (antagonist radioligand); Rep1, Rep2, Mean
# T1 construct: purchased Eurofins CEREP
# T1 sequence (P07550 whole entry): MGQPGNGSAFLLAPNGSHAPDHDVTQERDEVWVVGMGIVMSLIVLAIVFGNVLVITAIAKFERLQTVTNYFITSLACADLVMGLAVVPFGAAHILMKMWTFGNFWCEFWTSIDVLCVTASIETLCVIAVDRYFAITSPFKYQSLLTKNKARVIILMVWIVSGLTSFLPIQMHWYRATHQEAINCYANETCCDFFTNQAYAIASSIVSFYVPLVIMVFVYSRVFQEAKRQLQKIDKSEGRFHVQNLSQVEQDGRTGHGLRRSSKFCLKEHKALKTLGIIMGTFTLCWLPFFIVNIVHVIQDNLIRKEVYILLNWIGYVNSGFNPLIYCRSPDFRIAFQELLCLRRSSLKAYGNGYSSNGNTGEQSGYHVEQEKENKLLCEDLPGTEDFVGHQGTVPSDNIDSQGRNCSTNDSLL
# [5] = biological target: T2, panel of human receptors and channels (Homo sapiens, UniProt P24530); format: binding; settings: ETB (h) (agonist radioligand); Rep1, Rep2, Mean
# T2 construct: purchased Eurofins CEREP
# [6] = biological target: T3, panel of human receptors and channels (Homo sapiens, UniProt P37231); format: binding; settings: PPARγ (h) (agonist radioligand); Rep1, Rep2, Mean
# T3 construct: purchased Eurofins CEREP
# T3 sequence (P37231 whole entry): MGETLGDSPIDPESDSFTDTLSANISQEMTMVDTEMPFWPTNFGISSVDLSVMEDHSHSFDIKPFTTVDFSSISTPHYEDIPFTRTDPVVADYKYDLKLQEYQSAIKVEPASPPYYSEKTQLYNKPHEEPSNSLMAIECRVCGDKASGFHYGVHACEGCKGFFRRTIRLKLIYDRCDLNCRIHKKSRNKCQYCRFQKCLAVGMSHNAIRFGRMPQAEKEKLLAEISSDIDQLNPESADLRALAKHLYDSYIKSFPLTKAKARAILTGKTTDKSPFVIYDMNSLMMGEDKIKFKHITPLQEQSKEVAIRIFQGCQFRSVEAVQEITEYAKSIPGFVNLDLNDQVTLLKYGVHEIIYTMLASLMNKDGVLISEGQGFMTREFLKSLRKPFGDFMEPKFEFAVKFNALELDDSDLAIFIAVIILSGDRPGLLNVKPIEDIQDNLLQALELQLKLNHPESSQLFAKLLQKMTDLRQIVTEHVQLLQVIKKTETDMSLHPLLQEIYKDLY
# [7] = biological target: T4, panel of human receptors and channels (Homo sapiens, UniProt P06401); format: binding; settings: PR (h) (agonist radioligand); Rep1, Rep2, Mean
# T4 construct: purchased Eurofins CEREP
# T4 sequence (P06401 whole entry): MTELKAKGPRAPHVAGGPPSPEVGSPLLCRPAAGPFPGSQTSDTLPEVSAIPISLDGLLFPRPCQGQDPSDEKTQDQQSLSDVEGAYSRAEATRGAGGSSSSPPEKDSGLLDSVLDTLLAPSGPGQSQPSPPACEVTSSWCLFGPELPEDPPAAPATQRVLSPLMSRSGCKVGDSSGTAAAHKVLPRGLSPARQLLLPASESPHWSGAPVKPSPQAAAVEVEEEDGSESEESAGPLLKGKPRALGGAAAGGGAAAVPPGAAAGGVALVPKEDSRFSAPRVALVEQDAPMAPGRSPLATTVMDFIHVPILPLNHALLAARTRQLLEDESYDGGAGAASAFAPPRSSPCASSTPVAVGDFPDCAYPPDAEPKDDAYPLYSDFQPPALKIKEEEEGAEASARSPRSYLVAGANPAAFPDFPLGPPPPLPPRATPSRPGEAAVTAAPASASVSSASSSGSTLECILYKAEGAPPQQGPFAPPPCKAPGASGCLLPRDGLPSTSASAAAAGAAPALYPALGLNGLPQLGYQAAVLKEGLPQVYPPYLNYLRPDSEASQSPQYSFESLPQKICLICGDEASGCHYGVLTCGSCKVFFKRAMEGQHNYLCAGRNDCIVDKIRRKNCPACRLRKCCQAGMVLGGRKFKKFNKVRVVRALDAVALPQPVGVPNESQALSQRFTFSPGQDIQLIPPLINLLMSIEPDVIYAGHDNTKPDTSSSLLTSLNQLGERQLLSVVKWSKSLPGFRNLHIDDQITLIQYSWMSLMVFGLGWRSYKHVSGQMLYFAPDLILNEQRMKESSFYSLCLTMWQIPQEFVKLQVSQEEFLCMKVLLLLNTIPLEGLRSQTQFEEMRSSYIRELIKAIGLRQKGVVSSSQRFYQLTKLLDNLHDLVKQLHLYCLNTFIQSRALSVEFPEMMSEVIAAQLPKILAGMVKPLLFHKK
# [8] = biological target: T5, panel of human receptors and channels (Homo sapiens, UniProt Q01959); format: binding; settings: dopamine transporter (h) (antagonist radioligand); Rep1, Rep2, Mean
# T5 construct: purchased Eurofins CEREP
# T5 sequence (Q01959 whole entry): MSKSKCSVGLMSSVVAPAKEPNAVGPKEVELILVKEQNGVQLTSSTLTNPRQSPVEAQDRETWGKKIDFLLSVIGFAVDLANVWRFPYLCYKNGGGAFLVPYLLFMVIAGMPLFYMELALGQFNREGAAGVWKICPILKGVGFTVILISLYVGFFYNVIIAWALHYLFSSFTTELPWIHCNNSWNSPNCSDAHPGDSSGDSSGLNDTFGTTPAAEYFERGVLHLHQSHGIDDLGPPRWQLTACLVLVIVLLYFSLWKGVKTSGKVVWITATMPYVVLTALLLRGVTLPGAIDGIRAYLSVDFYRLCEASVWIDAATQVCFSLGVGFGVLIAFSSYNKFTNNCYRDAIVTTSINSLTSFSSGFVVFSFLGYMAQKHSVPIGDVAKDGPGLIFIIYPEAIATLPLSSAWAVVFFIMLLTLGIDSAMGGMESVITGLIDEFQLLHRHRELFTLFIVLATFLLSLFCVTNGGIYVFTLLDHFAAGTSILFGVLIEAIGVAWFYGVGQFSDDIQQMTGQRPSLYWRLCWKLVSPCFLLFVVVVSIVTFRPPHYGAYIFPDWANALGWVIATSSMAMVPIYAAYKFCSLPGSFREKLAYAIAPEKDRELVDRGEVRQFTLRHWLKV
# [9] = biological target: T6, panel of human receptors and channels (Homo sapiens, UniProt P34981); format: binding; settings: TRH1 (h) (agonist radioligand); Rep1, Rep2, Mean
# T6 construct: purchased Eurofins CEREP
# T6 sequence (P34981 whole entry): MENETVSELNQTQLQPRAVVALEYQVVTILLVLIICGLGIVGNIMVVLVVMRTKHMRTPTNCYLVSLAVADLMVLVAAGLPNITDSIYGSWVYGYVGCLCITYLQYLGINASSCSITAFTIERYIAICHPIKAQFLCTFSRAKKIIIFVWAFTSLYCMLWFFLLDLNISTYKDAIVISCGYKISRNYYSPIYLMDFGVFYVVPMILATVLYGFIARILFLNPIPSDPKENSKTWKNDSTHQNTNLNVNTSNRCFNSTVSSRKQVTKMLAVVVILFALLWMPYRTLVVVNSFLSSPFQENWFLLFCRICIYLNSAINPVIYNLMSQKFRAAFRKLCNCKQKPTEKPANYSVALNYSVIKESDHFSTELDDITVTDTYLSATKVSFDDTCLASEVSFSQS
# [10] = biological target: T7, panel of human receptors and channels (Homo sapiens, UniProt P30518); format: binding; settings: V2 (h) (agonist radioligand); Rep1, Rep2, Mean
# T7 construct: purchased Eurofins CEREP
# T7 sequence (P30518 whole entry): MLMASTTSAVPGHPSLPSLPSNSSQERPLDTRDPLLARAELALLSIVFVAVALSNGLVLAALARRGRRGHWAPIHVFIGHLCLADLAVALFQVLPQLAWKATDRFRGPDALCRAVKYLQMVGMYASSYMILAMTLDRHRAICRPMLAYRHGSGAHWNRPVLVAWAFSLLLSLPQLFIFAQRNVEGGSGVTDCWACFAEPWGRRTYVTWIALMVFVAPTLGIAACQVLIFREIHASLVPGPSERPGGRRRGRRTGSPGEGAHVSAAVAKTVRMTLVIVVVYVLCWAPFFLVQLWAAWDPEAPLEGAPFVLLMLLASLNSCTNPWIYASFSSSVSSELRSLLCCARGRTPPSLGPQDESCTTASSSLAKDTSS
# [11] = biological target: T8, panel of human receptors and channels (Homo sapiens, UniProt P30542); format: binding; settings: A1 (h) (antagonist radioligand); Rep1, Rep2, Mean
# T8 construct: purchased Eurofins CEREP
# T8 sequence (P30542 whole entry): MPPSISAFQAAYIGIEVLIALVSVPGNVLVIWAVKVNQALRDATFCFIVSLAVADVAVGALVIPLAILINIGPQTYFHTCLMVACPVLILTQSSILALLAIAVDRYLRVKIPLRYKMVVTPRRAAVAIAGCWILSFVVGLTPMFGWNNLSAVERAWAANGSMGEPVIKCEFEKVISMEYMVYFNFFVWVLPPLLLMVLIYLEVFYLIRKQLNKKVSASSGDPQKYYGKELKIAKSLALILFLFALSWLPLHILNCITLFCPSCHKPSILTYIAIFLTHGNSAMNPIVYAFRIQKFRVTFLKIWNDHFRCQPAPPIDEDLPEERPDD
# [12] = biological target: T9, panel of human receptors and channels (Homo sapiens, UniProt P30411); format: binding; settings: B2 (h) (agonist radioligand); Rep1, Rep2, Mean
# T9 construct: purchased Eurofins CEREP
# T9 sequence (P30411 whole entry): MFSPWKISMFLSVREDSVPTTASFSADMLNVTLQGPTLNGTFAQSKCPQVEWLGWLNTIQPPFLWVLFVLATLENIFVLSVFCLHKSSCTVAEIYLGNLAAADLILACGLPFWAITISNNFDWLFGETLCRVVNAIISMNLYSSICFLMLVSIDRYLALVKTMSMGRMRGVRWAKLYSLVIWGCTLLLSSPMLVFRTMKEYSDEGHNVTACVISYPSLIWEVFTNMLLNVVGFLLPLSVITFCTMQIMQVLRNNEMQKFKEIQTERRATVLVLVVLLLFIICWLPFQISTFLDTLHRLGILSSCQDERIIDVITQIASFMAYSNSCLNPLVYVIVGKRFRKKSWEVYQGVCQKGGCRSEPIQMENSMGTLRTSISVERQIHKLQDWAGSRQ
# [13] = biological target: T10, panel of human receptors and channels (Homo sapiens, UniProt P43116); format: binding; settings: EP2 (h) (agonist radioligand); Rep1, Rep2, Mean
# T10 construct: purchased Eurofins CEREP
# T10 sequence (P43116 whole entry): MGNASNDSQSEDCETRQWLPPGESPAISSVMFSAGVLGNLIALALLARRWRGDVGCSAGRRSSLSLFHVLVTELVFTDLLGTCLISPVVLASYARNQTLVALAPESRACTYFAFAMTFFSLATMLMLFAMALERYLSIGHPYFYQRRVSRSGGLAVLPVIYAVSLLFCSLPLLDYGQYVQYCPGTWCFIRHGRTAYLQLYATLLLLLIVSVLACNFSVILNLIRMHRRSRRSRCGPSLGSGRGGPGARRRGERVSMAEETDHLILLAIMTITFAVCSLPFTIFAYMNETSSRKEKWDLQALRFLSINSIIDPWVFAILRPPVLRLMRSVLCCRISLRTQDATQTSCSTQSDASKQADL
# [14] = biological target: T11, panel of human receptors and channels (Homo sapiens, UniProt P21554); format: binding; settings: CB1 (h) (agonist radioligand); Rep1, Rep2, Mean
# T11 construct: purchased Eurofins CEREP
# [15] = biological target: T12, panel of human receptors and channels (Homo sapiens, UniProt Q9GZV3); format: binding; settings: choline transporter (CHT1) (h) (antagonist radioligand); Rep1, Rep2, Mean
# T12 construct: purchased Eurofins CEREP
# [16] = biological target: T13, panel of human receptors and channels (Homo sapiens, UniProt P31645); format: binding; settings: 5-HT transporter (h) (antagonist radioligand); Rep1, Rep2, Mean
# T13 construct: purchased Eurofins CEREP
# T13 sequence (P31645 whole entry): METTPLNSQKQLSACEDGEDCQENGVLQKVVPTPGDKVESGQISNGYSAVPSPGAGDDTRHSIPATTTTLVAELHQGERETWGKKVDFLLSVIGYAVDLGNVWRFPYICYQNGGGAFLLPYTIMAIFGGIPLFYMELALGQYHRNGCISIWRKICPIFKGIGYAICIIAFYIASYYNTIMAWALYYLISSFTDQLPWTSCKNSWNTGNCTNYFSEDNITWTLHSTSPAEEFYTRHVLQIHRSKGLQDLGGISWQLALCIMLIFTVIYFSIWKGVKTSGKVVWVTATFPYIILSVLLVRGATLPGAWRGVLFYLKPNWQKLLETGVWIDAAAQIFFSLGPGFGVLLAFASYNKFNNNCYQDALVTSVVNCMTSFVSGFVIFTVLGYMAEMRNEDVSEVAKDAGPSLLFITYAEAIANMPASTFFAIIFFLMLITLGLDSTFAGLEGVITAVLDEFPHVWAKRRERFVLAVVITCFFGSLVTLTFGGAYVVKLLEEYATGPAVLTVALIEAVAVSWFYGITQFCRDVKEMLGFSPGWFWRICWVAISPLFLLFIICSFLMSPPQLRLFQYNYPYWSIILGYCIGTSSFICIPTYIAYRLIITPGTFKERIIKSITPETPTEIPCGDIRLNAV
# [17] = system: mouse primary hepatocytes; test: Hepatocyte stability, mouse; format: in vitro ADME
smiles,measurement,setting,value
C[C@@H](CNC(=O)[C@H](O)C(C)(C)CO)NC(=O)c1cc(C#N)ccc1F [MMV693182],hepatocyte CLint,[1],0.2 µL/min/1e6 cells
C[C@@H](CNC(=O)[C@H](O)C(C)(C)CO)NC(=O)c1cc(F)c(F)cc1F [MMV693183],Observed hepatic/ predicted hepatic,[2]; Mouse,< 1.9
same,Observed total-renal = observed hepatic,[2]; Mouse,< 13.4 mL/min/kg
same,Predicted hepatic plasma clearance,"[2]; Mouse, from in vitro hepatic clearance, Fu,p and B:P",7 mL/min/kg and 7.0 mL/min/kg
same,Norm. conc i.v.,"[2]; Mouse, Time (hrs) 0",0 ng/mL
same,Norm. conc i.v.,"[2]; Mouse, Time (hrs) 0.083333",1320 ng/mL and 1393.33 ng/mL and 1330 ng/mL
same,Norm. conc i.v.,"[2]; Mouse, Time (hrs) 0.25",846.667 ng/mL and 920 ng/mL and 863.333 ng/mL
same,Norm. conc i.v.,"[2]; Mouse, Time (hrs) 0.5",636.667 ng/mL and 626.667 ng/mL and 630 ng/mL
same,Norm. conc i.v.,"[2]; Mouse, Time (hrs) 1",324.667 ng/mL and 366.667 ng/mL and 300 ng/mL
same,Norm. conc i.v.,"[2]; Mouse, Time (hrs) 2",132.333 ng/mL and 151 ng/mL and 104 ng/mL
same,Norm. conc i.v.,"[2]; Mouse, Time (hrs) 4",39.3333 ng/mL and 48.3333 ng/mL and 26.9333 ng/mL
same,Norm. conc p.o.,"[2]; Mouse, Time (hrs) 0",0 ng/mL
same,Norm. conc p.o.,"[2]; Mouse, Time (hrs) 0.25",870 ng/mL and 850 ng/mL and 790 ng/mL
same,Norm. conc p.o.,"[2]; Mouse, Time (hrs) 0.5",610 ng/mL and 600 ng/mL and 553.333 ng/mL
same,Norm. conc p.o.,"[2]; Mouse, Time (hrs) 1",333.333 ng/mL and 313.333 ng/mL and 271.333 ng/mL
same,Norm. conc p.o.,"[2]; Mouse, Time (hrs) 2",115 ng/mL and 103.667 ng/mL and 65 ng/mL
same,Norm. conc p.o.,"[2]; Mouse, Time (hrs) 24",0.01333 ng/mL and 0.02 ng/mL
same,AUC0-∞,"[2]; i.v. 3 mg/kg, mean",3764.7 ng·h/mL
same,AUClast,"[2]; i.v. 3 mg/kg, mean",3763.8 ng·h/mL
same,C0,"[2]; i.v. 3 mg/kg, mean",5013.7 ng/mL
same,Kel,"[2]; i.v. 3 mg/kg, mean",0.58 h⁻¹
same,Vss_obs,"[2]; i.v. 3 mg/kg, mean",1.0265 L/kg
same,CLtotal,"[2]; i.v. 3 mg/kg, mean, 3 mg/kg",13.4 mL/min/kg and 13.36 mL/min/kg
same,T1/2,"[2]; i.v. 3 mg/kg, mean, 3 mg/kg",1.2 h and 1.19 h
same,share of total clearance contributed by the kidney,[2]; mice,48%
same,clearance contributed by the kidney,"[2]; mice, total minus predicted hepatic",6.4 mL/min/kg
same,%F,"[2]; p.o. 30 mg/kg, mean",70.03%
same,AUC0-∞,"[2]; p.o. 30 mg/kg, mean",26362.9 ng·h/mL
same,AUClast,"[2]; p.o. 30 mg/kg, mean",26362.2 ng·h/mL
same,CLtotal,"[2]; p.o. 30 mg/kg, mean",19.21 mL/min/kg
same,Cmax,"[2]; p.o. 30 mg/kg, mean",25100.0 ng/mL
same,Kel,"[2]; p.o. 30 mg/kg, mean",0.67 h⁻¹
same,T1/2,"[2]; p.o. 30 mg/kg, mean",1.05 h
same,Tmax,"[2]; p.o. 30 mg/kg, mean",0.25 h
same,cumulative exposure vs predicted human efficacious exposure,[3]; 30 mg/kg/day group,> 30 fold
same,Liver weight,[3]; 10 and 30 mg/kg/day,Liver weight was unchanged
same,liver histology,[3]; 10 and 30 mg/kg/day,absence of liver microscopic findings
same,Liver weight,"[3]; DRF 10 mg/kg/day, Females",6.6517 g
same,Liver weight,"[3]; DRF 10 mg/kg/day, Males",9.7817 g
same,Liver weight,"[3]; DRF 30 mg/kg/day, Females (two groups)",6.4437 g and 7.2357 g
same,Liver weight,"[3]; DRF 30 mg/kg/day, Males (two groups)",10.7203 g and 9.7543 g
same,Liver weight,"[3]; DRF study, females, 10 mg/kg/day, individual animals",6.951 g and 7.042 g and 5.962 g
same,Liver weight,"[3]; DRF study, females, 30 mg/kg/day (first column headed 30), individual animals, 30 mg/kg/day",7.24 g and 5.849 g and 6.242 g
same,Liver weight,"[3]; DRF study, females, 30 mg/kg/day (second column headed 30), individual animals, 30 mg/kg/day",7.466 g and 7.43 g and 6.811 g
same,Liver weight,"[3]; DRF study, males, 10 mg/kg/day, individual animals",9.171 g and 9.562 g and 10.612 g
same,Liver weight,"[3]; DRF study, males, 30 mg/kg/day (first column headed 30), individual animals, 30 mg/kg/day",10.621 g and 11.894 g and 9.646 g
same,Liver weight,"[3]; DRF study, males, 30 mg/kg/day (second column headed 30), individual animals, 30 mg/kg/day",10.364 g and 10.082 g and 8.817 g
same,NOEL,[3]; eight days,30 mg/kg/day
same,decrease in systemic exposure day 7 vs day 1,[3]; predominantly males at 30 mg/kg/day,up to 4 fold
same,% Inhibition of Control Specific Binding,[4],3.7% and -4.8% and -0.55%
same,% Inhibition of Control Specific Binding,[5],-8.6%
same,% Inhibition of Control Specific Binding,[6],-8.7% and -7.1% and -7.9%
same,% Inhibition of Control Specific Binding,[7],-7.9% and -12.3% and -10.1%
same,% Inhibition of Control Specific Binding,[8],-10.1% and -0.3% and -5.2%
same,% Inhibition of Control Specific Binding,[9],-6.1% and -7.7% and -6.9%
same,% Inhibition of Control Specific Binding,[10],3.4% and 12.9% and 8.15%
same,% Inhibition of Control Specific Binding,[11],-9.6% and -3.5% and -6.55%
same,% Inhibition of Control Specific Binding,[12],0.2% and 8.4% and 4.3%
same,% Inhibition of Control Specific Binding,[13],-1.6% and 2.2% and 0.3%
same,% Inhibition of Control Specific Binding,[14],-14.2%
same,% Inhibition of Control Specific Binding,[15],2.6% and 4.5% and 3.55%
same,% Inhibition of Control Specific Binding,[16],-13.7% and -4.2% and -8.95%
same,Compound Remaining (% of 0 min),[17]; 0 min,100%
same,Compound Remaining (% of 0 min),[17]; 5 min,114%
same,Compound Remaining (% of 0 min),[17]; 10 min,109%
same,Compound Remaining (% of 0 min),[17]; 20 min,103%
same,Compound Remaining (% of 0 min),[17]; 40 min,101%
same,Compound Remaining (% of 0 min),[17]; 60 min,105%
